According to ChEMBL document CHEMBL1134590, “Determination of the binding specificity of an integral membrane protein by saturation transfer difference NMR: RGD peptide ligands binding to integrin alphaIIbbeta3” (J Med Chem, 2001):

Target: Integrin alpha-IIb/beta-3 (Homo sapiens, UniProt P05106+P08514)
Experiment: Inhibition of integrin alphaIIb-beta3 binding
Format: protein-complex assay

Integrin alpha-IIb/beta-3, sequence (P05106 27-788 limits assumed): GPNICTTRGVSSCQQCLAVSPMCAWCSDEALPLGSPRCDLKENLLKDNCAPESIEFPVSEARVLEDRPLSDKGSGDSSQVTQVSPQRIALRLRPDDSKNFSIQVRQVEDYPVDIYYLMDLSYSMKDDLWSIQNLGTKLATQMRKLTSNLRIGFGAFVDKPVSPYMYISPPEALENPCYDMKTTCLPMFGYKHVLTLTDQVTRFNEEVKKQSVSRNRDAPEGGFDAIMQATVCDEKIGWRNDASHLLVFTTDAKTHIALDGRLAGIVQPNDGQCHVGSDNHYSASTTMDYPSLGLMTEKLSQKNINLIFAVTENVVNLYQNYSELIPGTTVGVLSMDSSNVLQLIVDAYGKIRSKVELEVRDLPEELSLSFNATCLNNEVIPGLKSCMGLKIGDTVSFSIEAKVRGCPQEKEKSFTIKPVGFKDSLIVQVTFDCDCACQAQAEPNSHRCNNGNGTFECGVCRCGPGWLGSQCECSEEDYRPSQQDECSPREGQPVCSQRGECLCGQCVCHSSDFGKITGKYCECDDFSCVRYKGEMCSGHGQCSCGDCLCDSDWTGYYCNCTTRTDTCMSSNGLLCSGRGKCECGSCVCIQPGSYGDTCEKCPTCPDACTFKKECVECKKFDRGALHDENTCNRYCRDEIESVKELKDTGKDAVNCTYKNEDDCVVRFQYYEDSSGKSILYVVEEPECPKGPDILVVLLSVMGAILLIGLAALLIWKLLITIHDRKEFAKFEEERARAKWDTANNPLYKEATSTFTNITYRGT
Integrin alpha-IIb/beta-3, sequence (P08514 32-887 limits assumed): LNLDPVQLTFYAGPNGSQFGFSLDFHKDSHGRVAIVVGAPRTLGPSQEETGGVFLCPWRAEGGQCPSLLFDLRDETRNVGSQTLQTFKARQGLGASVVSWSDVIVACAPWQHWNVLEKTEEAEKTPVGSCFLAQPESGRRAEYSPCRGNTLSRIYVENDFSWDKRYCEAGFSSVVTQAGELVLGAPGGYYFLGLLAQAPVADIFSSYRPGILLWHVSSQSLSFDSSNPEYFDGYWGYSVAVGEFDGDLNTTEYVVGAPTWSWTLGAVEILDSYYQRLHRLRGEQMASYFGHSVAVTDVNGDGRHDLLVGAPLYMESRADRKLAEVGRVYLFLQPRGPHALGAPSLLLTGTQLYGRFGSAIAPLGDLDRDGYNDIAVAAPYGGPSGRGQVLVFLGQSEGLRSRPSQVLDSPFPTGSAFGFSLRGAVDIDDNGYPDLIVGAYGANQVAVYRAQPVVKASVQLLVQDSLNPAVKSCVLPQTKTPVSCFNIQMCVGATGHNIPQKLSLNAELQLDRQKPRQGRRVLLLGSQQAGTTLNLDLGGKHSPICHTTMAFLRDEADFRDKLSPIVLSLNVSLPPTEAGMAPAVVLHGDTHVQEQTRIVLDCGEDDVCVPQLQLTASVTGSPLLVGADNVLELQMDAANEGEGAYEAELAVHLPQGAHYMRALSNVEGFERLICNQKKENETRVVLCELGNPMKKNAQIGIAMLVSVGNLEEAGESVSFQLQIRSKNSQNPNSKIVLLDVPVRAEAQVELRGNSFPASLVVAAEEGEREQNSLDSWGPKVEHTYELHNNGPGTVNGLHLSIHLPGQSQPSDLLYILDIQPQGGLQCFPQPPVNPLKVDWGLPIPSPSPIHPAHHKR
Integrin alpha-IIb/beta-3, sequence (P08514 891-1039 limits assumed): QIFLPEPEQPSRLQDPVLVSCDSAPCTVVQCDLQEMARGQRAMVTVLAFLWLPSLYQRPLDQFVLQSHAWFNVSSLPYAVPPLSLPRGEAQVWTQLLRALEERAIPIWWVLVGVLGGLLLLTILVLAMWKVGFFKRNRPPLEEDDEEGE

IC50: > 1000 µM
Structure (SMILES): N=C(N)NCCC[C@H](N)C(=O)NCC(=O)N[C@@H](CC(=O)O)C(=O)O
